Test results reported in ChEMBL document CHEMBL1208747, “Derivatives of tetrahydroisoquinoline: synthesis and initial evaluation of novel non-peptide antagonists of the alpha(IIb)beta(3)-integrin” (Bioorg Med Chem Lett, 2010).

Legend:
[1] = Antagonist activity at FITC-tagged […] integrin in human platelet rich plasma
[2] = molecular target: T1, Integrin alpha-IIb/beta-3 (Homo sapiens, UniProt P05106+P08514); assay: Antagonist activity at FITC-tagged […] integrin in human platelet rich plasma; type: functional, cell-free
[3] = molecular target: T1, Integrin alpha-IIb/beta-3; assay: Antagonist activity at FITC-tagged alphaIIbbeta3 integrin in human platelet assessed as inhibition of FITC-fibrinogen binding on washed platelets

T1 sequence (P05106 27-788 limits assumed): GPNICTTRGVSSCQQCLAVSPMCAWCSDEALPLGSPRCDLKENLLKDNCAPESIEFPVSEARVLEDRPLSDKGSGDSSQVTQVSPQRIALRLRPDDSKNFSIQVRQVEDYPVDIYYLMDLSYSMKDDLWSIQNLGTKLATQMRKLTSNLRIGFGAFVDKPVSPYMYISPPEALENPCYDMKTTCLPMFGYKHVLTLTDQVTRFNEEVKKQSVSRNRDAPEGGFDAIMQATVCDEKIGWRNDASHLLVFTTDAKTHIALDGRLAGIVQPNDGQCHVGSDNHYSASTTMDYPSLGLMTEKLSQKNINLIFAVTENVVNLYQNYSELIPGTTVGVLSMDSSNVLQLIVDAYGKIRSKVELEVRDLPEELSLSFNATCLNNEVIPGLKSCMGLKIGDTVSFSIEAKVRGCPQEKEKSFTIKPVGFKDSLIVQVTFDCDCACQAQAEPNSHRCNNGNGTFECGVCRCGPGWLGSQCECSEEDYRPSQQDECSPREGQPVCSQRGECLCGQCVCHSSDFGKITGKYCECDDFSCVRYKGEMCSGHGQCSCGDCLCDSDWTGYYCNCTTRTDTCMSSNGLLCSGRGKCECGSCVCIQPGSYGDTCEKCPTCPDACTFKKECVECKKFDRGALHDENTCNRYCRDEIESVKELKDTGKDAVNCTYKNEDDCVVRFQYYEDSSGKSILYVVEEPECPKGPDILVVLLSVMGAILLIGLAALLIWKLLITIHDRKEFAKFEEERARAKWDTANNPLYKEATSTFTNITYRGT
T1 sequence (P08514 32-887 limits assumed): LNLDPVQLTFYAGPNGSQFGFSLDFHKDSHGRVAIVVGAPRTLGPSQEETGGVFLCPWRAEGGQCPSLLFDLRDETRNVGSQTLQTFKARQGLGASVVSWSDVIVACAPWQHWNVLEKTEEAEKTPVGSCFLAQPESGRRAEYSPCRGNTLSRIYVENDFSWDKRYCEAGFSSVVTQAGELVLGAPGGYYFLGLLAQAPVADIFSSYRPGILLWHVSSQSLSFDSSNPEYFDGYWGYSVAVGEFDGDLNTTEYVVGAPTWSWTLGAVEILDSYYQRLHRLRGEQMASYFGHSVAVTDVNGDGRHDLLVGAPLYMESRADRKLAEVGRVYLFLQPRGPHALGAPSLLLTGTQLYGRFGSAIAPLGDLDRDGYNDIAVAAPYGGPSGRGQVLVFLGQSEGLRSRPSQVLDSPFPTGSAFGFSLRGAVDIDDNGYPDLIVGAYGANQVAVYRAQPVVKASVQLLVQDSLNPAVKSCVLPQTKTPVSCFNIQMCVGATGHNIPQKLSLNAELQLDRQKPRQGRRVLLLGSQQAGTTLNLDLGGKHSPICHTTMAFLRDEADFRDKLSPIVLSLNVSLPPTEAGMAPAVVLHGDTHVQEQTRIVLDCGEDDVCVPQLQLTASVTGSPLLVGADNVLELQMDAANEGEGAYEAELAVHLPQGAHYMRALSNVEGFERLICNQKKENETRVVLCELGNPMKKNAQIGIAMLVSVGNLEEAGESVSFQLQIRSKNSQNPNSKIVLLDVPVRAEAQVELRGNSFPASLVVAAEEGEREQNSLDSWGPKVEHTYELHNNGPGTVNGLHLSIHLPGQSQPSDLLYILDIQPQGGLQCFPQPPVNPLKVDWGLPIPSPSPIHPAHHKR
T1 sequence (P08514 891-1039 limits assumed): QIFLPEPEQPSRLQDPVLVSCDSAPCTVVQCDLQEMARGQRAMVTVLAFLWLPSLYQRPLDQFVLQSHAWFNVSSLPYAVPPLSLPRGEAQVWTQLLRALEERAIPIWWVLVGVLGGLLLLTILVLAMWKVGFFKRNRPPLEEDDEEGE

SMILES | IC50 [1] | IC50 [2] | IC50 [3]
O=C(O)CC(NC(=O)CCC(=O)Nc1ccc2c(c1)CNC2)c1ccccc1 (centres undefined) | 860 nM | – | –
O=C(O)CC(NC(=O)CCC(=O)Nc1ccc2c(c1)CNCC2)c1ccc2c(c1)OCO2 (centres undefined) | – | 90 nM | 0.4 nM
O=C(O)CC(NC(=O)CCC(=O)Nc1ccc2c(c1)CNCC2)c1cccc2ccccc12 (centres undefined) | – | 5200 nM | –
COc1ccc(C(CC(=O)O)NC(=O)CCCC(=O)Nc2ccc3c(c2)CNCC3)cc1OC (centres undefined) | – | 127 nM | 5 nM
O=C(O)CC(NC(=O)CCCC(=O)Nc1ccc2c(c1)CNCC2)c1ccc2c(c1)OCO2 (centres undefined) | – | 53 nM | 0.78 nM
COc1ccc(C(CC(=O)O)NC(=O)CCC(=O)Nc2ccc3c(c2)CNC3)cc1OC (centres undefined) | – | 890 nM | 9 nM
O=C(O)CC(NC(=O)CCC(=O)Nc1ccc2c(c1)CNC2)c1ccc2c(c1)OCO2 (centres undefined) | – | 31 nM | 0.22 nM
O=C(O)CCNC(=O)CCC(=O)Nc1ccc2c(c1)CNCC2 | – | 30 nM | 1.21 nM
O=C(O)CC(NC(=O)CCC(=O)Nc1ccc2c(c1)CNCC2)c1ccccc1F (centres undefined) | – | 570 nM | 5 nM
COc1ccc(C(CC(=O)O)NC(=O)c2cccc(C(=O)Nc3ccc4c(c3)CNCC4)c2)cc1 (centres undefined) | – | 17 nM | 0.8 nM
O=C(O)CC(NC(=O)c1cccc(C(=O)Nc2ccc3c(c2)CNCC3)c1)c1ccccc1 (centres undefined) | – | 25 nM | 1 nM
COc1ccc(C(CC(=O)O)NC(=O)c2cccc(C(=O)Nc3ccc4c(c3)CNCC4)c2)cc1OC (centres undefined) | – | 11.6 nM | 0.7 nM

Now from value to compound:

IC50 [1] | IC50 [2] | IC50 [3] | SMILES
– | 96 nM | 0.9 nM | Cc1ccc(C(CC(=O)O)NC(=O)CCC(=O)Nc2ccc3c(c2)CNCC3)cc1 (centres undefined)
– | 310 nM | 3.5 nM | COc1ccc(C(CC(=O)O)NC(=O)CCC(=O)Nc2ccc3c(c2)CNCC3)cc1 (centres undefined)
– | 87 nM | – | CC(C)Oc1ccc(C(CC(=O)O)NC(=O)CCC(=O)Nc2ccc3c(c2)CNCC3)cc1 (centres undefined)
– | 64 nM | 0.63 nM | COc1ccc(C(CC(=O)O)NC(=O)CCC(=O)Nc2ccc3c(c2)CNCC3)cc1OC (centres undefined)
– | 510 nM | – | CCOc1ccc(C(CC(=O)O)NC(=O)CCC(=O)Nc2ccc3c(c2)CNCC3)cc1OC (centres undefined)
– | 4200 nM | 18 nM | COc1ccc(C(CC(=O)O)NC(=O)CCCC(=O)Nc2ccc3c(c2)CNCC3)cc1 (centres undefined)
– | 160 nM | 2.6 nM | COc1ccc(C(CC(=O)O)NC(=O)CCC(=O)Nc2ccc3c(c2)CNC3)cc1 (centres undefined)
– | 105 nM | 6 nM | CC(C)Oc1ccc(C(CC(=O)O)NC(=O)CCC(=O)Nc2ccc3c(c2)CNC3)cc1 (centres undefined)
– | 13 nM | 1.01 nM | O=C(O)CC(NC(=O)CCC(=O)Nc1ccc2c(c1)CNCC2)c1ccccc1 (centres undefined)
– | 8.9 nM | 1 nM | O=C(O)CC(NC(=O)CCC(=O)Nc1ccc2c(c1)CNCC2)c1ccc(F)cc1 (centres undefined)
– | 10000 nM | 1100 nM | O=C(O)CC(NC(=O)CCC(=O)Nc1ccc2c(c1)CNCC2)c1cccc(F)c1 (centres undefined)
– | 2000 nM | 65 nM | O=C(O)CC(NC(=O)CCC(=O)Nc1ccc2c(c1)CNCC2)c1ccc(Cl)cc1 (centres undefined)
